# Legend:
# [1] = molecular target: T1, Mg561 (H6c-Mg561) (Megavirus chiliensis, UniProt G5CT11); assay: in vitro polyU tailing of […]-labelled 20-mer RNA, urea-PAGE; type: biochemical; conditions: 100 μM UTP in place of ATP, Mn2+ (similar with Mg2+), pH 7.5, 30°C
# T1 construct: gene mchi_555; full length, N-terminal His6 tag removed by HRV 3C protease; E. coli Rosetta (DE3)
# T1 sequence (G5CT11 1-531): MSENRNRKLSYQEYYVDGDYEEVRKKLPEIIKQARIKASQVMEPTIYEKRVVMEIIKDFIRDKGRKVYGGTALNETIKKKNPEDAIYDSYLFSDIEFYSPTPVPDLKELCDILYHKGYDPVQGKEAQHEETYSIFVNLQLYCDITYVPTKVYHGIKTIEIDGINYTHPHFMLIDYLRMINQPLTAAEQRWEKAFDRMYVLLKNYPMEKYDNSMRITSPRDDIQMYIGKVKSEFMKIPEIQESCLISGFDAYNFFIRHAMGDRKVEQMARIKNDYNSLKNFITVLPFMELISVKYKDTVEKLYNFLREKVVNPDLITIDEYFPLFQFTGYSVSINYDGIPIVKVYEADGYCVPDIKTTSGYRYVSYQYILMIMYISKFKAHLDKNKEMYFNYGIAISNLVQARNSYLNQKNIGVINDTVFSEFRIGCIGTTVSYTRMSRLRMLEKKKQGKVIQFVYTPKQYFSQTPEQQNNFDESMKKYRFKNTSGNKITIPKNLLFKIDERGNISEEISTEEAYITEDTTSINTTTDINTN
# [2] = molecular target: T1, Mg561 (H6c-Mg561); assay: in vitro polyadenylation of […]-labelled 20-mer RNA, urea-PAGE; type: biochemical; conditions: 100 μM ATP, 5 mM MgCl2 or 0.5 mM MnCl2, pH 7.5, 30°C
# [3] = molecular target: T2, R341 (H6c-R341) (Acanthamoeba polyphaga mimivirus, UniProt Q5UQS6); conditions: 100 μM ATP, 5 mM MgCl2 or 0.5 mM MnCl2, pH 7.5, 30°C
# T2 construct: gene MIMI_R341
# [4] = molecular target: Mimivirus polyA polymerase R341, after tag removal (H6c-R341) (Mimivirus); assay: SEC; gel filtration of purified proteins, GE Healthcare markers for calibration
# [5] = molecular target: Megavirus chilensis Mg18 protein with N-terminal His6 tag (H6c+Mg18) (Megavirus chilensis); assay: BLI
# [6] = molecular target: Megavirus chilensis polyA polymerase Mg561, after tag removal (H6c-Mg561) (Megavirus chilensis); assay: SEC; gel filtration of purified proteins, GE Healthcare markers for calibration
# [7] = molecular target: T3, Mg18 (H6c+Mg18) (Megavirus chiliensis, UniProt G5CQI9); assay: methyl transfer from 3H-AdoMet to RNA, DEAE filter binding; type: biochemical; conditions: 10 μM AdoMet, GpppAN13, 7MeGpppAN13 or poly(A) RNA 0.7 μM, 1 mM MgCl2, pH 7.5, 30°C; labelled compound
# T3 construct: gene mchi_21; full length, N-terminal His6 tag kept; E. coli Rosetta (DE3)
# T3 sequence (G5CQI9 1-340): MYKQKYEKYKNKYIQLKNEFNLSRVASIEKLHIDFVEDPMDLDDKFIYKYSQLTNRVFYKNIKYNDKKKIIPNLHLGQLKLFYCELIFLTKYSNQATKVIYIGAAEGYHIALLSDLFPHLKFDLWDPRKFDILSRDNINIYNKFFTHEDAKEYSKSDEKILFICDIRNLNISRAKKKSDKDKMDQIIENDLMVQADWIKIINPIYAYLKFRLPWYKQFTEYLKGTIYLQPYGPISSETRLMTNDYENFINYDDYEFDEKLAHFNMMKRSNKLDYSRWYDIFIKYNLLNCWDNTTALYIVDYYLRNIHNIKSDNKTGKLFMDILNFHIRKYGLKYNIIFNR
molecule,measurement,setting,value
O=c1ccn([C@@H]2O[C@H](COP(=O)(O)OP(=O)(O)OP(=O)(O)O)[C@@H](O)[C@H]2O)c(=O)[nH]1 [UTP],"in vitro polyU tailing of 32P-labelled 20-mer RNA, urea-PAGE",[1],"Mg561 was also able to add long polyU tails, although with a reduced activity"
Nc1ncnc2c1ncn2[C@@H]1O[C@H](COP(=O)(O)OP(=O)(O)OP(=O)(O)O)[C@@H](O)[C@H]1O [ATP],"in vitro polyadenylation of 32P-labelled 20-mer RNA, urea-PAGE",[2],"synthesize long products, apparently proccessively, derived from the RNA and ATP"
same,"in vitro polyadenylation of 32P-labelled 20-mer RNA, urea-PAGE",[3],"synthesize long products, apparently proccessively, derived from the RNA and ATP"
"Mimivirus polyA polymerase R341, after tag removal (H6c-R341) (enzyme)",stoichiometry N,[4],2
"Megavirus chilensis polyA polymerase Mg561, after tag removal (H6c-Mg561) (enzyme)",Kd,[5],6.2 µM
same,stoichiometry N,[6],2
C[S+](CC[C@H](N)C(=O)O)C[C@H]1O[C@@H](n2cnc3c(N)ncnc32)[C@H](O)[C@@H]1O (stereo partly shown) [AdoMet],"methyl transfer from 3H-AdoMet to RNA, DEAE filter binding",[7],Mg18 had comparable activity with 7MeGpppAN13 and GpppAN13

# Reference: paper PMC4402537, “mRNA maturation in giant viruses: variation on a theme” (Nucleic Acids Research, 2015)
